For three compounds, Kb, Activity and EC50 results are on record in ChEMBL document CHEMBL1150031, “The first selective antagonist for a GABAC receptor” (Bioorg Med Chem Lett, 1996).

For assay [1], the target named is T1, GABA-C receptor (Homo sapiens) (UniProt P28476+A8MPY1+P24046). The assay can be described thus: Inhibition of mammalian Gamma-aminobutyric acid type C (GABA-C) receptor, potent antagonist. The class given is functional.
Assay [2] deals with GABA-A receptor; anion channel (Homo sapiens) (UniProt P14867+P47870+P18507+P28472+P48169+Q99928+Q9UN88+P34903+O00591+O14764+Q8N1C3+P18505+P78334+P47869+P31644+Q16445). The assay can be described thus: Inhibition of mammalian Gamma-aminobutyric acid A (GABA-A) receptor (inactive). It counts as protein-complex assay.
Assay [3] in a line: Inhibition of rat brain Gamma-aminobutyric acid A (GABA-A) receptor expressed in oocytes, weak antagonist. It counts as functional. To be noted: Oocyte.
The target of assay [4] is T1, GABA-C receptor (Homo sapiens). Briefly: Inhibition of human Gamma-aminobutyric acid type C (GABA-C) receptor, potent antagonist. It counts as functional.
The target of assay [5] is GABA B receptor (Rattus norvegicus, UniProt O88871+Q9Z0U4). Briefly: Inhibition of rat hippocampal Gamma-aminobutyric acid type B receptor (weak agonist). It counts as functional, tissue-based, Hippocampus.
Chain of GABA B receptor (Q9Z0U4 whole entry): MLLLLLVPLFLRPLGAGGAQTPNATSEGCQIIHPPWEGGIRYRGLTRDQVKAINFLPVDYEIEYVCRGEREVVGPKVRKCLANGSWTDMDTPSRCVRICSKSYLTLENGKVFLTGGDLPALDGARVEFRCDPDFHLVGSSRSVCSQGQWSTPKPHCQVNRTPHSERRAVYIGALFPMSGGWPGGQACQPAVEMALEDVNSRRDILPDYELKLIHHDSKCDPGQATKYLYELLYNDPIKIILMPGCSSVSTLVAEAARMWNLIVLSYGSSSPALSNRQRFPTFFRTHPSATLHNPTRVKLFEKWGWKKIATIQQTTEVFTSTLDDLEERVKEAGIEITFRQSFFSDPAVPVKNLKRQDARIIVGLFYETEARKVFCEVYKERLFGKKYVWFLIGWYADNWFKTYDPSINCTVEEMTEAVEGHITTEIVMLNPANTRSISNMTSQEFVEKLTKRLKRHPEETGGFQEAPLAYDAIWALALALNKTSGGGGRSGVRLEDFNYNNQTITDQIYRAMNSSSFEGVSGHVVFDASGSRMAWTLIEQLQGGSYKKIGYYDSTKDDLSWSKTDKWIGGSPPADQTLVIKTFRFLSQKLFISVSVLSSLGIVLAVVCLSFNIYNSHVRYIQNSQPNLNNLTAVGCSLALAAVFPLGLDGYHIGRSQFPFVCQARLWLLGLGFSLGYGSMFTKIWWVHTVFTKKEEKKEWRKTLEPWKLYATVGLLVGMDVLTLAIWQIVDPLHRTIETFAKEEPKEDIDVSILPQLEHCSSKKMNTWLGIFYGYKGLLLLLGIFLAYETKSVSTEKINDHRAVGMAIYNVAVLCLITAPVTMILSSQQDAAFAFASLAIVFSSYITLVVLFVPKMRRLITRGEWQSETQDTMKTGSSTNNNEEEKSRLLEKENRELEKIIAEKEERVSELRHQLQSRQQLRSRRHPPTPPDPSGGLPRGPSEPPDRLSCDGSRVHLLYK
Chain of GABA B receptor (O88871 whole entry): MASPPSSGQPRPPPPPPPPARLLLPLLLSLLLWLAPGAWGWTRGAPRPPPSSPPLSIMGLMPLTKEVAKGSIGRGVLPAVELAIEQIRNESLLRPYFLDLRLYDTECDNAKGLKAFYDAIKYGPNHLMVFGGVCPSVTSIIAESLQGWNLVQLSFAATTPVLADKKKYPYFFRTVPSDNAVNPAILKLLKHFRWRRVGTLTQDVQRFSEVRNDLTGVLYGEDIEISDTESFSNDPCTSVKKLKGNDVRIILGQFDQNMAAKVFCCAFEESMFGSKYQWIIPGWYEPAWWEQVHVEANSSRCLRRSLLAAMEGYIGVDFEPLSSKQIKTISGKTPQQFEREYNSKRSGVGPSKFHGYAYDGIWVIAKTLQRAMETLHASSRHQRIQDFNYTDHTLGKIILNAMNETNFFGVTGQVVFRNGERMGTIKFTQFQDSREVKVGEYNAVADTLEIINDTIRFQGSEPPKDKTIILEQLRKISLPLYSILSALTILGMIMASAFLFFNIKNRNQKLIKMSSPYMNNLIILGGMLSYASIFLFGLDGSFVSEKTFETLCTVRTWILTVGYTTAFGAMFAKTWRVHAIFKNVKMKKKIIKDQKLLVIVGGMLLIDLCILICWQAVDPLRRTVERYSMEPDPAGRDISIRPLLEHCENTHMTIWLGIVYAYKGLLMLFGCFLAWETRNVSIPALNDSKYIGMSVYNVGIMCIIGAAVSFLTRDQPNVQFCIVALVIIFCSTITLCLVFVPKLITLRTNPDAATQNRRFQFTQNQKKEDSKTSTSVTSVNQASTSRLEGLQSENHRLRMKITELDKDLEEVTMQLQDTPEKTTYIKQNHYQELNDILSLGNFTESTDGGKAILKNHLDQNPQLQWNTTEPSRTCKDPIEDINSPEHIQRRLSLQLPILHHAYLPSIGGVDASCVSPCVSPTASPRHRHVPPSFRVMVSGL
Assay [6] has as its target T1, GABA-C receptor (Homo sapiens). The assay can be described thus: Inhibition of mammalian Gamma-aminobutyric acid type C (GABA-C) receptor, partial agonist. The class given is functional.
Assay [7] concerns the target GABA-B receptor (Homo sapiens) (UniProt Q9UBS5+O75899). Briefly: Inhibition of mammalian Gamma-aminobutyric acid type B receptor (Inactive). The class given is protein-complex assay.
Assay [8] has as its target GABA-A receptor; anion channel. The assay can be described thus: Inhibition of mammalian Gamma-aminobutyric acid A (GABA-A) receptor, agonist. The class given is functional.

pEC50: −log10 of the molar value. The source made the active and inactive calls. No cut-off for these calls is given here.

T1 sequence (A8MPY1 whole entry, looked up): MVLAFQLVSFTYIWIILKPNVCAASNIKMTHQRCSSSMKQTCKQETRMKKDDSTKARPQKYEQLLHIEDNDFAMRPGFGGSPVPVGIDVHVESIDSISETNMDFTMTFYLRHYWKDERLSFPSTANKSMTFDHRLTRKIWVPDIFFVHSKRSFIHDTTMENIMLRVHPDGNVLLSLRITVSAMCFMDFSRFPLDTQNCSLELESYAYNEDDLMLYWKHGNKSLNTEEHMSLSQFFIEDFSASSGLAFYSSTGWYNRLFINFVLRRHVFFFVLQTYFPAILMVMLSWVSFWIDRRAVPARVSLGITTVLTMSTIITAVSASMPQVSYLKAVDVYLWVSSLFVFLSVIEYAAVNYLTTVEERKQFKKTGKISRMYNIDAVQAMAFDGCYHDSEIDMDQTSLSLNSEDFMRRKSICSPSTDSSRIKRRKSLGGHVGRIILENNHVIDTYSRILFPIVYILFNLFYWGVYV
T1 sequence (P24046 whole entry, looked up): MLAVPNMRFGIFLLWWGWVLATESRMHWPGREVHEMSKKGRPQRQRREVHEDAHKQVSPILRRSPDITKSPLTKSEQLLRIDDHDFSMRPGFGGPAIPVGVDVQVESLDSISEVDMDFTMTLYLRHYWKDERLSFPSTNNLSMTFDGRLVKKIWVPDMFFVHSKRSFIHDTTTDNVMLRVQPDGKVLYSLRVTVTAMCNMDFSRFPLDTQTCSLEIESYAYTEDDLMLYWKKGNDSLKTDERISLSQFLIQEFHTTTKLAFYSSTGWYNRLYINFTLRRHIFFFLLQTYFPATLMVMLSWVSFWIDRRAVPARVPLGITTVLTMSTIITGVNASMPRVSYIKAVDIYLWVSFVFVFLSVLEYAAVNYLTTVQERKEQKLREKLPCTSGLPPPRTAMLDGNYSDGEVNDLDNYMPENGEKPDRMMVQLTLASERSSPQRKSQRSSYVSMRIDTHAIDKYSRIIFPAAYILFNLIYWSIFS
T1 sequence (P28476 whole entry, looked up): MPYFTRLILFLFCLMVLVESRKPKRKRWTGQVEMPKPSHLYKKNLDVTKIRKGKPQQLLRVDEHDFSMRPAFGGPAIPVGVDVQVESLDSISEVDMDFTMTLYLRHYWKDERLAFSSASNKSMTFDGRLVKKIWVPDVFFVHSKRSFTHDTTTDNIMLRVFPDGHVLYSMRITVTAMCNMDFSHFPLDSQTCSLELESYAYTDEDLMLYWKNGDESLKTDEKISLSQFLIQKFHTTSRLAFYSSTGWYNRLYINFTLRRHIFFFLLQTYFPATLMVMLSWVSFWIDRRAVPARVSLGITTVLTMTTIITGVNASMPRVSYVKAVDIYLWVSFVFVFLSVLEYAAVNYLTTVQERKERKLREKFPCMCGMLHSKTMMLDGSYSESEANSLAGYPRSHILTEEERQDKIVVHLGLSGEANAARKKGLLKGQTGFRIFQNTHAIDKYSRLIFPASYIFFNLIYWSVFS

Regarding `CP(=O)(O)CCCN`, the Kb in assay [1] came to 800 nM. Besides, the outcome in assay [2] was inactive.
As to `CP(=O)(O)C1=CCNCC1`, the Kb in assay [3] came to 320 µM; in assay [4] it was 2100 nM. For the same compound, in assay [5], the negative-log EC50 (pEC50) is 3.30.
As for `O=C(O)C1=CCNCC1` [ISOGUVACINE], the Kb in assay [6] stood at 99 µM. In addition, the result in assay [7] was inactive. Besides, in assay [8], the pEC50 is 3.51.
